Data on nine compounds can be found in paper PMC10786919, “Design-rules for stapled peptides with in vivo activity and their application to Mdm2/X antagonists” (Nature Communications, 2024).

As usually defined, the EC50 is the concentration giving half of the maximal effect. Broadly, the logD is the decadic logarithm of the distribution of all forms, ionised or not, between an organic phase and buffer at a given pH. Lower therefore signals a more hydrophilic compound.

Data set [1] in a line: Lactate dehydrogenase (LDH) release assay. Format: cell-based. The method, boiled down:
(§1)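 Membrane damage measured as lactate dehydrogenase release (CytoTox-ONE kit) from p53-responsive β-lactamase reporter HCT116 cells plated at 8000 per well. Final DMSO 0.5%; geometric mean reported from a minimum of three biological replicates.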

The next data set deals with HCT116 cells. Nature of the data set: Lactate dehydrogenase (LDH) release assay. Format: cell-based. The procedure, abridged: as §1
The test system of another data set is Ca Ski cell line. The note with it: 72 h. The method, boiled down:
(§2)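 Compound dilution series (10 points, 3-fold, 10 mM top stock in DMSO) tested on overnight-plated Ca Ski cells in RPMI1640/10% FBS and on blasticidin-selected p53RE-bla HCT-116 cells in McCoy's 5A; read-out was CellTiter-Glo 2.0 luminescence after room-temperature equilibration.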

Data set [2] has as its system CellSensor p53RE-bla HCT-116 Cell Line. The note with it: 72 h. The method, boiled down: as §2
The next data set is described as follows: in vitro. The note with it: Nanoclick permeability assay EC50. The method, boiled down:
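Azido-peptide permeability was read as loss of NanoBRET signal (donor 450 nm, acceptor 610 nm) after adding NanoBret618-azide at 10 μM final.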

The nature of data set [3]: physchem.
The nature of data set [4]: Experimental LogD (partition coefficient). The settings on record: for logD: not stated, Partition Coeff LogD.
Data set [5] is described as follows: Solubility assay (kinetic solubility, PBS pH 7). It is filed as physicochemical. The settings on record: for solubility kinetic: pH 7, aqueous buffer, kinetic from dmso stock, read-out: Solubility. The procedure, abridged:
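Std: 10 mM stock → 100 µM in ACN/MeOH/DMSO (10:80:10). Sol. [µM] = (sample peak area / std peak area) × std conc.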

The nature of data set [6]: physchem. This is another data set of the same source.

In brackets after ≈: the same amount, converted by molar mass. Read-outs that look alike come from different tables or passages of the source. Positions of bridges follow the written chain, without caps; N, C: chain ends. Non-standard residues stand in square brackets, D forms with d. Residues, ends and D or L forms follow the SMILES beside them. Lys(N3) = [N-]=[N+]=NCCCC[C@H](N)C(=O)O; R8 = C=CCCCCCC[C@@](C)(N)C(=O)O; Cba = N[C@@H](CC1CCC1)C(=O)O; S5 = C=CCCC[C@](C)(N)C(=O)O; βAla = NCCC(=O)O

As to `CC(=O)N[C@@H](CCCCN=[N+]=[N-])C(=O)NCCC(=O)N[C@H](C(=O)N[C@H](C(=O)N[C@@H](Cc1ccccc1)C(=O)N[C@]1(C)CCCCCCC=CCCC[C@@](C)(C(=O)N[C@@H](CO)C(=O)N[C@@H](C)C(=O)N[C@@H](C)C(N)=O)NC(=O)[C@H](CC2CCC2)NC(=O)[C@H](CCC(N)=O)NC(=O)[C@H]([C@@H](C)O)NC(=O)[C@H](Cc2c[nH]c3ccccc23)NC(=O)[C@H](Cc2ccc(O)cc2)NC(=O)[C@H]([C@@H](C)O)NC1=O)[C@@H](C)O)[C@@H](C)O` [MP-5494] (Ac-[Lys(N3)][βAla]TTF[R8]TYWTQ[Cba][S5]SAA-NH2; staple 6-13), the EC50 in data set [1] (LDH: Cytotoxicity assay: EC50) is > 50.6 µM; in the data set with Ca Ski cell line, > 49.8 µM; in [2], 0.679 µM. In addition, in the data set on HCT116 cells, the “LDH: Cytotoxicity assay: % Effect” value is 2.763%. The cell entry EC50 in the data set “in vitro” is 0.457 µM. The compound further yielded an EPSA in “physchem [3]” of 199 A^2. The compound also showed a logD in [4] of 2.94.
Turning to `CC(=O)N[C@@H](CCCCN=[N+]=[N-])C(=O)NCCC(=O)N[C@H](C(=O)N[C@H](C(=O)N[C@@H](Cc1ccccc1)C(=O)N[C@]1(C)CCCCCCC=CCCC[C@@](C)(C(=O)N[C@@H](CO)C(=O)N[C@@H](C)C(=O)N[C@@H](C)C(N)=O)NC(=O)[C@H](CC2CCC2)NC(=O)[C@H](CCC(N)=O)NC(=O)[C@H](C(C)C)NC(=O)[C@H](Cc2c[nH]c3ccccc23)NC(=O)[C@H](Cc2ccc(O)cc2)NC(=O)[C@H](C(C)C)NC1=O)[C@@H](C)O)C(C)C` [MP-490] (Ac-[Lys(N3)][βAla]VTF[R8]VYWVQ[Cba][S5]SAA-NH2; staple 6-13), the EC50 in [1] (LDH: Cytotoxicity assay: EC50) was > 50.6 µM; in the data set with Ca Ski cell line, > 49.8 µM; in [2], 0.819 µM. Moreover, in [5] (pH 7, PBS), the solubility kinetic came to 3 µM (≈ 5.86 µg/mL). Further, in “in vitro”, the cell entry EC50 worked out at 1.37 µM. For the same compound, the EPSA in “physchem [3]” is 194 A^2. Besides, the logD in data set [4] was 4.
With `CC(=O)N[C@@H](CCCCN=[N+]=[N-])C(=O)NCCC(=O)N[C@@H](Cc1ccc(O)cc1)C(=O)N[C@H](C(=O)N[C@@H](Cc1ccccc1)C(=O)N[C@]1(C)CCCCCCC=CCCC[C@@](C)(C(=O)N[C@@H](CO)C(=O)N[C@@H](C)C(=O)N[C@@H](C)C(N)=O)NC(=O)[C@H](CC2CCC2)NC(=O)[C@H](CCC(N)=O)NC(=O)[C@H](Cc2ccc(O)cc2)NC(=O)[C@H](Cc2c[nH]c3ccccc23)NC(=O)[C@H](Cc2ccc(O)cc2)NC(=O)[C@H](Cc2ccc(O)cc2)NC1=O)[C@@H](C)O` [MP-694] (Ac-[Lys(N3)][βAla]YTF[R8]YYWYQ[Cba][S5]SAA-NH2; staple 6-13), the EC50 in data set [1] (LDH: Cytotoxicity assay: EC50) was > 50.6 µM; in the data set with Ca Ski cell line it was > 49.8 µM; in data set [2] it was 3.03 µM. The solubility kinetic in data set [5] (pH 7, PBS) amounted to 9 µM (≈ 19.3 µg/mL). In addition, the cell entry EC50 in the data set “in vitro” came out at 0.453 µM. The EPSA in the data set “physchem [3]” turned out to be 227 A^2. The logD in data set [4] came to 3.22.
For `CC(=O)N[C@@H](CCCCN=[N+]=[N-])C(=O)NCCC(=O)N[C@@H](CO)C(=O)N[C@H](C(=O)N[C@@H](Cc1ccccc1)C(=O)N[C@]1(C)CCCCCCC=CCCC[C@@](C)(C(=O)N[C@@H](CO)C(=O)N[C@@H](C)C(=O)N[C@@H](C)C(N)=O)NC(=O)[C@H](CC2CCC2)NC(=O)[C@H](CCC(N)=O)NC(=O)[C@H](CO)NC(=O)[C@H](Cc2c[nH]c3ccccc23)NC(=O)[C@H](Cc2ccc(O)cc2)NC(=O)[C@H](CO)NC1=O)[C@@H](C)O` [MP-5493] (Ac-[Lys(N3)][βAla]STF[R8]SYWSQ[Cba][S5]SAA-NH2; staple 6-13), the EC50 in data set [1] (LDH: Cytotoxicity assay: EC50) was > 50.6 µM; with Ca Ski cell line, > 49.8 µM; in [2] it was 3.61 µM. The “LDH: Cytotoxicity assay: % Effect” value in the data set with HCT116 cells came to 6.777%. Besides, the cell entry EC50 in “in vitro” came to 0.0294 µM. In addition, the EPSA in “physchem [3]” came out at 204 A^2. In addition, the logD in data set [4] was 2.69.
Take `CC(=O)N[C@@H](CCCCN=[N+]=[N-])C(=O)N[C@@H](CCCCN)C(=O)N[C@@H](CCCCN)C(=O)NCCC(=O)N[C@@H](C)C(=O)N[C@@H](C)C(=O)N[C@@H](Cc1ccccc1)C(=O)N[C@]1(C)CCCCCCC=CCCC[C@@](C)(C(=O)N[C@@H](C)C(=O)N[C@@H](C)C(=O)N[C@@H](C)C(N)=O)NC(=O)[C@H](CC2CCC2)NC(=O)[C@H](C)NC(=O)[C@H](C)NC(=O)[C@H](Cc2c[nH]c3ccccc23)NC(=O)[C@H](Cc2ccc(O)cc2)NC(=O)[C@H](C)NC1=O` [MP-8967] (Ac-[Lys(N3)]KK[βAla]AAF[R8]AYWAA[Cba][S5]AAA-NH2; staple 8-15): the EC50 stood at 16.8 µM in data set [1] (LDH Cytotoxicity assay EC50), 16.8 µM in data set [1] (LDH: Cytotoxicity assay EC50), 13.5 µM in the data set on Ca Ski cell line and 12.1 µM in data set [2]. Also, the Solubility result is reported as “P.B” in data set [5] and “Poorly Behaved” in [5] (pH 7, PBS). Further, the cell entry EC50 in “in vitro” was determined as 0.575 µM. Further, in “physchem [6]”, the EPSA was 223 A^2. For the same compound, the logD in data set [4] stood at 2.75.
In the case of `CC[C@H](C)[C@H](NC(=O)CCNC(=O)[C@H](CCCCN=[N+]=[N-])NC(C)=O)C(=O)N[C@H](C(=O)N[C@@H](Cc1ccccc1)C(=O)N[C@]1(C)CCCCCCC=CCCC[C@@](C)(C(=O)N[C@@H](CO)C(=O)N[C@@H](C)C(=O)N[C@@H](C)C(N)=O)NC(=O)[C@H](CC2CCC2)NC(=O)[C@H](CCC(N)=O)NC(=O)[C@H]([C@@H](C)CC)NC(=O)[C@H](Cc2c[nH]c3ccccc23)NC(=O)[C@H](Cc2ccc(O)cc2)NC(=O)[C@H]([C@@H](C)CC)NC1=O)[C@@H](C)O` [MP-491] (Ac-[Lys(N3)][βAla]ITF[R8]IYWIQ[Cba][S5]SAA-NH2; staple 6-13), the EC50 was > 50.6 µM in data set [1] (LDH: Cytotoxicity assay: EC50), > 49.8 µM in the data set on Ca Ski cell line and 1.32 µM in data set [2]. In addition, the “LDH: Cytotoxicity assay: % Effect” value with HCT116 cells is -1.101%. For the same compound, the cell entry EC50 in “in vitro” came out at 0.237 µM. The compound further displayed an EPSA in “physchem [3]” of 196 A^2. In addition, in [4], the logD was 4.61.
For `CC(=O)N[C@@H](CCCCN=[N+]=[N-])C(=O)NCCC(=O)N[C@@H](CC(C)C)C(=O)N[C@H](C(=O)N[C@@H](Cc1ccccc1)C(=O)N[C@]1(C)CCCCCCC=CCCC[C@@](C)(C(=O)N[C@@H](C)C(=O)N[C@@H](C)C(=O)N[C@@H](C)C(N)=O)NC(=O)[C@H](CC2CCC2)NC(=O)[C@H](CCC(N)=O)NC(=O)[C@H](C)NC(=O)[C@H](Cc2c[nH]c3ccccc23)NC(=O)[C@H](Cc2ccc(O)cc2)NC(=O)[C@H](C)NC1=O)[C@@H](C)O` [MP-8965] (Ac-[Lys(N3)][βAla]LTF[R8]AYWAQ[Cba][S5]AAA-NH2; staple 6-13), the EC50 in data set [1] (LDH: Cytotoxicity assay EC50) was > 50 µM; with Ca Ski cell line it was > 49.8 µM; in data set [2], 0.855 µM. The Solubility result is “P.B” in data set [5] and “Poorly Behaved” in data set [5] (pH 7, PBS). In “in vitro”, the cell entry EC50 came to 0.112 µM. For the same compound, in the data set “physchem [6]”, the EPSA was determined as 205 A^2. Also, the results for the “Partition Coeff LogD” value in data set [4] and in data set [4] (experimental) were “Poorly Behaved” and “P.B”, respectively.
Regarding `CC(=O)N[C@@H](CCCCN=[N+]=[N-])C(=O)NCCC(=O)N[C@@H](CC(C)C)C(=O)N[C@H](C(=O)N[C@@H](Cc1ccccc1)C(=O)N[C@]1(C)CCCCCCC=CCCC[C@@](C)(C(=O)N[C@@H](CO)C(=O)N[C@@H](C)C(=O)N[C@@H](C)C(N)=O)NC(=O)[C@H](CC2CCC2)NC(=O)[C@H](Cc2c[nH]c3ccccc23)NC(=O)[C@H](C)NC(=O)[C@H](Cc2c[nH]c3ccccc23)NC(=O)[C@H](Cc2ccc(O)cc2)NC(=O)[C@H](CCC(=O)O)NC1=O)[C@@H](C)O` [MP-187] (Ac-[Lys(N3)][βAla]LTF[R8]EYWAW[Cba][S5]SAA-NH2; staple 6-13), the EC50 was > 50 µM in data set [1] (LDH: Cytotoxicity assay EC50), > 49.8 µM with Ca Ski cell line and 7.27 µM in [2]. Further, the solubility kinetic in data set [5] (pH 7, PBS) was determined as 3.5 µM (≈ 7.1 µg/mL). The cell entry EC50 in “in vitro” stood at 0.247 µM. Besides, the EPSA in the data set “physchem [6]” amounted to 242 A^2. The compound also registered a logD in data set [4] of 3.14.
In the case of `CC(=O)N[C@@H](CCCCN=[N+]=[N-])C(=O)NCCC(=O)N[C@@H](Cc1ccccc1)C(=O)N[C@H](C(=O)N[C@@H](Cc1ccccc1)C(=O)N[C@]1(C)CCCCCCC=CCCC[C@@](C)(C(=O)N[C@@H](CO)C(=O)N[C@@H](C)C(=O)N[C@@H](C)C(N)=O)NC(=O)[C@H](CC2CCC2)NC(=O)[C@H](CCC(N)=O)NC(=O)[C@H](Cc2ccccc2)NC(=O)[C@H](Cc2c[nH]c3ccccc23)NC(=O)[C@H](Cc2ccc(O)cc2)NC(=O)[C@H](Cc2ccccc2)NC1=O)[C@@H](C)O` [MP-492] (Ac-[Lys(N3)][βAla]FTF[R8]FYWFQ[Cba][S5]SAA-NH2; staple 6-13), the EC50 in [1] (LDH: Cytotoxicity assay: EC50) is > 50.6 µM; in the data set with Ca Ski cell line it was > 49.8 µM; in data set [2], 2.53 µM. Further, the solubility kinetic in [5] (pH 7, PBS) was determined as 3 µM (≈ 6.3 µg/mL). Besides, the cell entry EC50 in the data set “in vitro” came to 0.16 µM. Also, the EPSA in “physchem [3]” stood at 211 A^2. Also, the pH-dependent lipophilicity (logD) in data set [4] stood at 4.21.
